The test system of data set [1] is rats. Description: Passive avoidance test on the model of amnestic syndrome (multiple scopolamine injection). The data set is classed as in vivo. As to the method:
The influence of drugs on reflex conditioning in rats was studied by the passive avoidance test in conditions of 50% acquisition. The effect of the compound was estimated by the increase of the relative number of learned animals with respect to that of control group. […] The passive avoidance test was performed within 24 hours after the last application of test preparations.

Data set [2] deals with mice. In words: Step-down test, scopolamine induced amnesia. The data set is classed as in vivo. The protocol: (§1) Psychoneurotropic activity of the declared compounds and their influence on learning and memory were observed using unbred male (18-20 g) mice and 180-200 g) rats, held at standard conditions (room temperature 21°-22° C., 12-hours lighting schedule, food and water ad libitum).

The next data set deals with old rats. In words: Passive avoidance test in old rats. It counts as in vivo. Conditions: for Passive avoidance latency in 7 days after training: old rats (18 month), 20 days application, 1 mg/kg (piracetam 250 mg/kg). As to the method:
The influence of drugs on reflex conditioning in rats was studied by the passive avoidance test in conditions of 50% acquisition. The effect of the compound was estimated by the increase of the relative number of learned animals with respect to that of control group. […] The other reference drug--noothropic agent piracetam--was given in the dose 250 mg/kg 60 min before training. Amnestic syndrome was stimulated by 20 days application of Sc at the daily dose of 1 mg/kg intraperitoneally. […] The passive avoidance test was performed within 24 hours after the last application of test preparations.
Improvement of animal performance was accompanied by the normalizing of brain synaptosomes microviscosity under the action of all the substances tested. […] The latter observation indicates to the possible interference of amiridine and substance Vo into the processes of atherogenesis in old animals.

Data set [3] relates to membranes of brain synaptosomes. In words: Microviscosity of brain synaptosome membranes, old rats. The data set is classed as in vivo. Conditions: old rats (18 month), 20 days application. The protocol: Microviscosity of membranes of brain synaptosomes was studied with the use of molecular probe pirren. Brain tissue homogenization and preparation of synaptosomes were performed by the method of De Robertis.

Another data set has as its system brain synaptosomes. In words: Cholesterol content in brain synaptosomes, old rats. It counts as in vivo. Conditions: for Cholesterol content in synaptosomes (% from total lipid content): old rats (18 month), 20 days application; for Cholesterol content of brain synaptosomes, old rats: 20 days course.
The subject of data set [4] is rats. Description: Passive avoidance test in normal rats, 50% acquisition. The data set is classed as in vivo. Conditions: Rattus norvegicus, ip, 20 min, read-out: Increase of the number of correct trails (% to control). Passive avoidance test (rats). In short, it runs like this: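 Unbred rats (180–200 g) were kept at 21–22 °C on a 12-h light cycle with free food and water. Passive avoidance was run under 50% acquisition conditions within 24 h after the last dose. Effect was scored as the rise in the proportion of learned animals versus controls.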

Data set [5] has as its system mice. In words: Psychotropic activity test: arecoline induced hyperkynesis. Conditions: intraperitoneally, dose 1/20 of LD. The data set is classed as in vivo.
A further data set can be described thus: in vivo. Conditions: for LD50: in vivo, ip. The protocol: as §1
Acute toxicity was studied by the method of Kerber with intra peritoneal drug injection.

Data set [6] relates to mice. In words: Psychotropic activity test: motor activity. The data set is classed as in vivo. Conditions: intraperitoneally, dose 1/20 of LD.
In data set [7] the test system is membranes of brain synaptosomes. Description: Microviscosity of brain synaptosome membranes, amnestic syndrome model. Conditions: for Microviscosity changes in % to control: rats, scopolamine 20 days, then drug 10 days, brain synaptosomes. It counts as in vivo, rats.
The test system of data set [8] is rat adipocytes. Description: Lipid content in incubation medium after incubation of adipocytes. It counts as cell-based. As to the method: Lipid regulative activity of the declared compounds--derivatives of 9-amino acridine--were evaluated in vitro[…] using rat adipocytes. Adipocytes were separated from adipose tissue of testis appendages of adult male rats. Lipid composition analysis was performed by the method of thin-layer chromatography.
Quantitative analysis of phospholipids (PL), mono- and diacylglycerides (MDG), triacylglycerides (TG), free fatty acids (FFA), free cholesterol (FCL), and methyl esters of fatty acids (MEFA) was performed by the method of spectrophotometry.

In data set [9] the test system is rat adipocytes. Description: Lipid composition of adipocytes after incubation with compounds. The data set is classed as cell-based. In short, it runs like this:
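Adipocytes isolated from testis-appendage adipose tissue of adult male rats and incubated with 9-aminoacridine derivatives. Lipids separated by thin-layer chromatography. PL, MDG, TG, FFA, FCL and MEFA quantified spectrophotometrically.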

The test system of another data set is K channels. Description: Ionic permeabilities of excitable membranes, voltage clamp in the Ranvier node. The data set is classed as cell-based, frog.
The mark [10] stands for this setting: intraperitoneal injection, Table 5, read-out: LD50 (mg/kg) by Kerber.
Where [11] appears, read: rats, scopolamine 1 mg/kg 20 days, then drug 10 days (1 mg/kg; piracetam 250 mg/kg).
[12] abbreviates: distribution between cells and incubation medium, Table 13.

The structures appear in SMILES notation. Read-outs that look alike come from different tables or passages of the source.

Take `Nc1c2c(nc3ccccc13)CCCC2` [Tacrine, tacrine, reference compound]: the “Passive avoidance latency” value in the data set with rats [1] (1 mg/kg) is 169.0 ± 14.8 s. In addition, the “Antiamnestic activity in Step-down test (% of mice with latency > cut off)” value with mice [2] is given as 33 % of mice. Also, the “Passive avoidance latency in 7 days after training” value (shortened to “Passive avoidance latency in 7 days”) in the data set with old rats amounted to 163.4 ± 16.5 s. Also, the “Microviscosity changes (% to control)” value in data set [3] is 101.4 % to control. In addition, the “Cholesterol content in synaptosomes (% from total lipid content)” value in the data set with brain synaptosomes is listed as 39.7 ± 1.4 % from total lipid content. Also, the change in vivo at 0.1 mg/kg in the data set on rats [4] worked out at 25%. The “Increase of duration of arecoline induced hyperkynesis (% to control)” value (shortened to “Increase of duration … (% to control)”) in the data set with mice [5] is 88 % to control. In addition, the LD50 in the data set “in vivo” (setting [10]) came to 35.5 ± 1.8 mg/kg; in the data set “in vivo” (read-out: LD), 52 mg/kg. The “Motor activity increment (% to control)” value with mice [6] is reported as 0 % to control. The “Microviscosity changes in % to control” value in data set [7] is 97.2 % to control.

Take `CCCCNc1c2c(nc3ccccc13)CC(C)(C)CC2=O` [Vo]: the “Performance in passive avoidance test, amnestic syndrome” value with rats [1] (10 days application course) is reported as “improved performance in passive avoidance test in the 10 days application course to the level achieved under the treatment with reference drugs”. In addition, in the data set on rat adipocytes [8], the “Ejection of triacylglycerides into external medium” value was “enhanced ejection of triacylglycerides into external medium”. In the data set with rat adipocytes [9], the “Change of lipid composition in adipocytes” value is listed as “Accumulation of phospholipids in a cell”; the “Content of methyl esters of fatty acids in adipocytes” value is given as “sharp decreases”; the “PL/TG relations and cell cholesterol level” value is “increase PL/TG relations and decrease cell cholesterol level”; the “Potency of effect on lipid composition of adipocytes” value is given as “most potent effect on lipid composition of adipocytes”. For the same compound, in data set [7] (10 days application course), the “Microviscosity of brain synaptosomes, amnestic syndrome” value is given as “normalizing of microviscosity of brain synaptosomes”.

As to `CCCCNc1c2c(nc3ccccc13)CC(C)(C)CC2=O` [Vp], in the data set with rats [1] (setting [11]), the “Passive avoidance latency” value came out at 170.3 ± 14.9 s. Also, in the data set with mice [2], the “Antiamnestic activity in Step-down test” value was “pronounced antiatonestic activity, comparable with that of amiridine and tacrine”; the “Antiamnestic activity in Step-down test (% of mice with latency > cut off)” value is listed as 25 % of mice. In the data set with rat adipocytes [8] (incubation medium, Table 12), the “FFA/TG in incubation medium” value amounted to 0.92, the “PL/CL in incubation medium” value worked out at 0.65 and the “PL/TG in incubation medium” value stood at 0.52. Further, in the data set with rat adipocytes [9], the “Lipid-regulative effect compared with probucol” value is recorded as “not inferior”. Moreover, in the data set with rat adipocytes [9] (cells, Table 11), the FFA/TG in adipocytes worked out at 1.03, the PL/CL in adipocytes was 0.83 and the PL/TG in adipocytes came out at 0.89. In the data set on rat adipocytes [9] (setting [12]), the FFAc/FFAm stood at 0.93 and the PLc/PLm was found to be 1.41. For the same compound, the “Performance of old rats in passive avoidance test” value in the data set on old rats (20 days course, age 18 months) was “improved performance of old rats (age 18 months) in passive avoidance test more significantly than in 6 month old adult rats”. Moreover, the “Passive avoidance latency in 7 days” value with old rats stood at 169.4 ± 10.5 s. Further, the “Microviscosity changes (% to control)” value in data set [3] is on record as 97.9 % to control. In the data set on brain synaptosomes, the “Cholesterol content of brain synaptosomes, old rats” value was “normalized the cholesterol content of brain synaptosomes” and the “Cholesterol content in synaptosomes (% from total lipid content)” value was 30.1 ± 2.4 % from total lipid content. For the same compound, the change in vivo at 0.1 mg/kg in the data set with rats [4] stood at 25%. The “Increase of duration … (% to control)” value in the data set with mice [5] is 0 % to control. The “Capability to induce the shift of potassium permeability voltage dependency” value with K channels is “most pronounced capability to induce the shift of potassium permeability voltage dependency”. Besides, in “in vivo” (intraperitoneal injection, Table 5), the “LD50 (mg/kg) by Kerber” value is recorded as 200.0 ± 21.9 mg/kg. Further, the “Motor activity increment (% to control)” value in the data set on mice [6] is 69 % to control. Besides, the “Microviscosity changes in % to control” value in data set [7] is recorded as 93.8 % to control.

As to `Nc1c2c(nc3c1CCC3)CCCC2` [Amiridine, amiridine, reference compound], in the data set with rats [1] (setting [11]), the “Passive avoidance latency” value came out at 149.0 ± 11.7 s. The “Antiamnestic activity in Step-down test (% of mice with latency > cut off)” value in the data set on mice [2] is reported as 33 % of mice. Also, the “Passive avoidance latency in 7 days” value with old rats was 116.1 ± 16.9 s. The “Microviscosity changes (% to control)” value in data set [3] is reported as 101.7 % to control. Also, in the data set with brain synaptosomes, the “Cholesterol content of brain synaptosomes, old rats” value is on record as “normalized the cholesterol content of brain synaptosomes” and the “Cholesterol content in synaptosomes (% from total lipid content)” value is given as 33.2 ± 0.8 % from total lipid content. In addition, in the data set on rats [4] (rats, 0.1 mg/kg i.p. 20 min before training, piracetam 250 mg/kg 60 min before training), the change in vivo at 0.1 mg/kg was 70%. Moreover, the “Increase of duration … (% to control)” value in the data set with mice [5] was 100 % to control. In “in vivo” (setting [10]), the LD50 was found to be 52 ± 3.4 mg/kg. Moreover, the LD50 in the data set “in vivo” (read-out: LD) stood at 35 mg/kg. Further, in the data set on mice [6], the “Motor activity increment (% to control)” value is 45 % to control. The “Microviscosity changes in % to control” value in data set [7] is given as 105.0 % to control.

The values are drawn from patent US5672707A (priority 1991, dated 1997).
